What was measured:
Colo205 = assay: Cell-based proliferation assay for determination of GI50 values, colon cancer cell line; settings: Homo sapiens, COLO 205; 96 h treatment, cyquant cell proliferation assay; read-out: Cellular activities GI50, Colo205
Description: (§1) Cell-based Proliferation assay for determination of GI50 values
(§2) Three different cancer cell lines were obtained from ATCC: Human colon cancer cell line (Colo205), human breast cancer cell lines (MDA-MB435), and human lung cancer cell line (NCl-H522). Colo205 cells and NCl-H522 were cultivated in RPMI 1640 containing 2 mM
(§3) L-Glutamine, 5% FBS, 1.0 mM Na Pyruvate. MDA-MB435 cells were cultivated in DMEM containing 2 mM L-Glutamine, 5% FBS. Colo205 cells were seeded in 96-wells plate at 2000 and 5000 cells per well respectively. MDA-MB435 and NCl-H522 cells were seeded in 96-wells plate at 6000 cells per well. The plates were incubated at 37° C., 5% CO2, for 24 h. Cells were treated with compounds at various concentrations for 96 h. Cell growth was then monitored using cyquant cell proliferation assay (Invitrogen Pte Ltd). Dose response curves were plotted to determine GI50 values for the compounds using XL-fit (ID Business Solution, Emeryville, Calif.).

NCI H552 = assay: Cell-based proliferation assay for determination of GI50 values, lung cancer cell line; settings: Homo sapiens; 96 h treatment, cyquant cell proliferation assay; read-out: Cellular activities GI50, NCI H552
Description: as §1, §2, §3

SMILES: CC(C)(C)OC(=O)N1CCN(c2ccc(C(=O)Nc3nc(-c4ccc(CC(=O)NO)s4)cs3)cc2)CC1 [Example 9]
- GI50 (Colo205): 5.47 µM
- GI50 (NCI H552): 3.01 µM

— patent US20070167499A1, “Biaryl linked hydroxamates: preparation and pharmaceutical applications” (A*BIO Pte Ltd., priority 2003, published 2007)
